# Results: patent US9284423B2, “Crosslinkable composition crosslinkable by real michael addition (RMA) reaction” (NUPLEX RESINS B.V., priority 2011, dated 2016)
# Experiments:
# [1] = Determination of Michael addition reactivity (Example 12): loss of X-H component in butyl acrylate/methanol at room temperature, by back-titration (GC for dimethylmalonate); assay type: physicochemical; conditions: for Relative conversion rates (relative Michael addition reactivity: initial increase in % conversion, per minute): with strong base, same method as for succinimide; for Succinimide remaining (%): strong base (tetrabutylammonium hydroxide) added, % relative to theoretical level
# Method: Subsequently, the concentration of succinimide is determined as a function of time by taking samples, neutralizing with a known excess of HCl in water, and backtitration with a KOH solution. […] Succinimide concentration is expressed as % relative to the theoretical level based on used amounts.
# [2] = pKa defined in aqueous environment; cited from earlier work
# [3] = butyl acrylate/methanol, room temperature
Structure (SMILES),"Relative conversion rates (relative Michael addition reactivity: initial increase in % conversion, per minute) [1, 3]",pKa [2],other results
"c1nc[nH]n1 [1,2,4-triazole]","0.91 % conversion, per minute",,
"CC1(C)NC(=O)NC1=O [5,5-dimethylhydantoin]","0.03 % conversion, per minute",10.2,
c1ccc2[nH]nnc2c1 [benzotriazole],"0.29 % conversion, per minute",8.2,
CCOC(=O)CC(=O)OCC [diethylmalonate],,13.0,
O=C1Nc2ccccc2C1=O [isatine],,10.3,
C[N+](=O)[O-] [nitromethane],,10.2,
O=C1CCC(=O)N1 [succinimide],"0.33 % conversion, per minute",,"Succinimide acidic protons consumed ([1]; in about an hour, [succinimide]/[base]=5): 25%; Succinimide remaining (%) ([1]; time 3 min, [succinimide]/[base]=5, butyl acrylate/methanol, room temperature): 99%; Succinimide remaining (%) ([1]; time 30 min, [succinimide]/[base]=5, butyl acrylate/methanol, room temperature): 87%; Succinimide remaining (%) ([1]; time 60 min, [succinimide]/[base]=5, butyl acrylate/methanol, room temperature): 77%; Succinimide remaining (%) ([1]; time 120 min, [succinimide]/[base]=5, butyl acrylate/methanol, room temperature): 60%; Succinimide remaining (%) ([1]; time 180 min, [succinimide]/[base]=5, butyl acrylate/methanol, room temperature): 48%; Loss of succinimide N-H without base initiation ([1]; without base, butyl acrylate/methanol, room temperature, two weeks): no significant loss"
O=c1cc[nH]c(=O)[nH]1 [uracil],,9.9,
